pIC50: −log10 of the molar value. The source made the active and inactive calls. The rule behind the calls is not given here.
What was measured:
[1] = system: Escherichia coli; test: Inhibition of Escherichia coli DnaB helicase at 6 uM
[2] = Inhibition of Escherichia coli DnaB helicase in presence of 1 mM ATP
[3] = Inhibition of Escherichia coli DnaB helicase in presence of 150 uM ATP
[4] = system: Escherichia coli; test: Inhibition of Escherichia coli DnaB helicase-stimulated primer synthesis
[5] = system: Escherichia coli; test: Inhibition of Escherichia coli DnaB helicase at 60 uM
[6] = system: Escherichia coli; test: Inhibition of Escherichia coli DnaB helicase at 12 uM
[7] = system: Escherichia coli; test: Inhibition of Escherichia coli DnaB helicase at 30 uM

- Km [1]: 17 µM
- Vmax [1]: 1.64 µM/s
- pIC50 [2]: 4.95
- pIC50 [3]: 4.99
- Activity [4]: Active
- Km [5]: 4.5 µM
- Vmax [5]: 0.35 µM/s
- Km [6]: 2.9 µM
- Vmax [6]: 1.06 µM/s
- Km [7]: 2.3 µM
- Vmax [7]: 0.61 µM/s
Structure (SMILES): O=c1c(O)c(-c2cc(O)c(O)c(O)c2)oc2cc(O)cc(O)c12 [MYRICETIN]

Source: ChEMBL document CHEMBL1140476 (Bioorg Med Chem, 2007)
